Measurements: patent publication US11872216B2, “Pharmaceutical formulation comprising cineole and amoxicillin” (priority 2016, dated 2024)

Assays:
Assay in all cases: Microplate microdilution growth inhibition (PIC, MIC, FIC-index)
Format in all cases: cell-based
[1] = tested on: BSBL Klebsiella pneumoniae H2001
Experimental: (§1) The six strains tested in this study are purified clinical isolates identified in the bacteriology laboratory of the Hassan II university teaching hospital center (CHU, Fes, Morocco). Three of the six bacterial strains tested are strains of BSBL Escherichia coli (P956, P933 and P7847) and the other three bacterial strains tested are strains of BSBL Klebsiella pneumoniae (H1878, H2001 and H1893).
(§2) For each test performed, precultures of the bacterial strains (frozen beforehand at −20° C.) for 24 h at 37° C. were prepared. From these precultures, bacterial inocula containing 2×10^7 CFU (colony-forming units)/ml were prepared, adjusting the optical density to 540 nm.
(§3) Amoxicillin (AMX) and cineole were supplied by Sigma Aldrich (France). A stock solution of AMX (400 μg/ml) was prepared after dissolving 40 mg of antibiotic in 100 ml of sterile distilled water. From this stock solution, serial dilutions were performed. The cineole concentrations used were prepared by emulsifying pure cineole in 0.2% (v/v) of agar-agar according to the method described by Remmal A et al. (J. Essent. Oil. Res [Book], 1993, 5: pages 1179-1184).
(§4) The partial inhibitory concentrations (PIC) are the concentrations of antibacterial agents which inhibit the growth of a given percentage (90%, 75%, 50%, 40% . . . ) of the bacterial population studied. The PICs of AMX and cineole with respect to the six bacterial strains used were determined via a microplate microdilution technique based on the monitoring of the bacterial growth by measuring the optical density (Casey J. T. et al., J. Microbiol. Meth [Book], 2004, 58: pages 327-334; Patton T et al., J. Microbiol. Meth [Book], 2006, 64: pages 84-95).
(§5) 96-well U-shaped sterile microplates with a capacity of 200 μl were used. For each microplate, two control rows were prepared: • A row containing 200 μl of the MH liquid medium (sterility control and negative control). • A row containing 150 μl of the MH liquid medium and 50 μl of the bacterial inoculum at 2×10^7 CFU/ml (positive control).
(§6) For AMX and cineole, two rows were prepared containing 100 μl of MH liquid medium, 50 μl of the bacteria inoculum at 2×10^7 CFU/ml and 50 μl of decreasing concentrations of antimicrobial agents. The AMX concentrations used are: 50-25-12.5-6.25-3.1-1.6-0.8-0.4-0.20-0.10-0.05-0.025 μg/ml. The cineole concentrations used are: 100-50-25-12.5-6.25-3.1-1.6-0.8-0.4-0.20-0.10-0.05 μl/ml. The optical densities (OD) were determined at 540 nm using a microplate spectrophotometer (Versamax, Molecular Devices, USA). The OD was measured at time t=0 and after 22 hours of incubation at 30° C. The percentage of inhibition of the antimicrobial agents with respect to each of the six strains was calculated according to Casey J. T. et al. (J. Microbiol. Meth. [Book], 2004, 58: pages 327-334) according to the following formula:
(§7) With ODT0=OD of the test well at time t=0, ODT22=OD of the test well after 22 h of incubation, ODC0=OD of the positive control well at time t=0, ODC22=OD of the positive control well after 22 h of incubation.
(§8) After having determined the PICs of AMX and cineole alone, the antibacterial power of the combination of AMX and cineole was evaluated. The same technique of microplate microdilution was used. The AMX-cineole combinations were prepared in sterile tubes as follows: • AMX 50% PIC+cineole 40% PIC • AMX 50% PIC+cineole 30% PIC • AMX 50% PIC+cineole 20% PIC • AMX 25% PIC+cineole 40% PIC • AMX 25% PIC+cineole 30% PIC • AMX 25% PIC+cineole 20% PIC.
(§9) The fractional inhibitory concentration index (FIC-index) expressing the degree of synergism of the AMX-cineole combination was calculated according to the following formula (Odds F. C. et al., J. Antimicrob. Chemoth. [Book], 2003, 52: page 1).
(§10) The AMX-cineole combination is considered: • Synergistic when the FIC-index is ≤0.5 • Additive when 0.5<FIC-index <1 • Indifferent when 1<FIC-index <2 • Antagonistic when FIC-index >2. Results

[2] = tested on: BSBL Escherichia coli P933
Experimental: as §1, §2, §3, §4, §5, §6, §7, §8, §9, §10

[3] = tested on: BSBL Klebsiella pneumoniae H1893
Experimental: as §1, §2, §3, §4, §5, §6, §7, §8, §9, §10

[4] = tested on: BSBL Klebsiella pneumoniae H1878
Experimental: as §1, §2, §3, §4, §5, §6, §7, §8, §9, §10

[5] = tested on: BSBL Escherichia coli P7847
Experimental: as §1, §2, §3, §4, §5, §6, §7, §8, §9, §10

[6] = tested on: BSBL Escherichia coli P956
Experimental: as §1, §2, §3, §4, §5, §6, §7, §8, §9, §10

[7] = cineole alone, Klebsiella pneumoniae H2001
[8] = cineole alone, Escherichia coli P933
[9] = cineole alone, Klebsiella pneumoniae H1893
[10] = cineole alone, Klebsiella pneumoniae H1878
[11] = cineole alone, Escherichia coli P7847
[12] = cineole alone, Escherichia coli P956

SMILES: CC12CCC(CC1)C(C)(C)O2 [cineole, 1,8-cineole]
- 100% MIC Alone (cineole, second figure of the cell) ([1]; K. pneumoniae 112001): 100 μl/ml
- 20% PIC [1, 7]: 0.7 ± 0.09 μl/ml
- 30% PIC [1, 7]: 3.1 ± 0.10 μl/ml
- 40% PIC [1, 7]: 6.9 ± 0.12 μl/ml
- 100% MIC Alone (cineole, second figure of the cell) ([2]; E. coli P933): 100 μl/ml
- 20% PIC [2, 8]: 1.3 ± 0.24 μl/ml
- 30% PIC [2, 8]: 2.3 ± 0.09 μl/ml
- 40% PIC [2, 8]: 6.8 ± 0.14 μl/ml
- 100% MIC Alone (cineole, second figure of the cell) ([3]; K. pneumoniae 111893): 100 μl/ml
- 20% PIC [3, 9]: 0.6 ± 0.12 μl/ml
- 30% PIC [3, 9]: 2.7 ± 0.09 μl/ml
- 40% PIC [3, 9]: 6.8 ± 0.09 μl/ml
- 100% MIC Alone (cineole, second figure of the cell) ([4]; K. pneumoniae 111878): 100 μl/ml
- 20% PIC [4, 10]: 0.4 ± 0.12 μl/ml
- 30% PIC [4, 10]: 2.9 ± 0.12 μl/ml
- 40% PIC [4, 10]: 7.1 ± 0.12 μl/ml
- 100% MIC Alone (cineole, second figure of the cell) ([5]; E. coli P7847): 100 μl/ml
- 20% PIC [5, 11]: 1.2 ± 0.11 μl/ml
- 30% PIC [5, 11]: 2.7 ± 0.12 μl/ml
- 40% PIC [5, 11]: 6.5 ± 0.10 μl/ml
- 100% MIC Alone (cineole, second figure of the cell) ([6]; E. coli P956): 100 μl/ml
- 20% PIC [6, 12]: 1.2 ± 0.16 μl/ml
- 30% PIC [6, 12]: 2.6 ± 0.12 μl/ml
- 40% PIC [6, 12]: 6.2 ± 0.20 μl/ml

SMILES: CC1(C)S[C@@H]2[C@H](NC(=O)[C@H](N)c3ccc(O)cc3)C(=O)N2[C@H]1C(=O)O [amoxicillin, Amoxicillin]
- MIC ([1]; Klebsiella pneumoniae, K. pneumoniae 112001, read-out: 100% MIC Alone (amoxicillin, first figure of the cell)): 50 µg/mL
- 25% PIC ([1]; amoxicillin alone, Klebsiella pneumoniae H2001): 0.6 ± 0.14 µg/mL
- IC50 ([1]; amoxicillin alone, Klebsiella pneumoniae H2001, read-out: 50% PIC): 1.3 ± 0.12 µg/mL
- MIC ([2]; Escherichia coli, E. coli P933, read-out: 100% MIC Alone (amoxicillin, first figure of the cell)): 50 µg/mL
- 25% PIC ([2]; amoxicillin alone, Escherichia coli P933): 0.5 ± 0.10 µg/mL
- IC50 ([2]; amoxicillin alone, Escherichia coli P933, read-out: 50% PIC): 1.3 ± 0.24 µg/mL
- MIC ([3]; Klebsiella pneumoniae, K. pneumoniae 111893, read-out: 100% MIC Alone (amoxicillin, first figure of the cell)): 50 µg/mL
- 25% PIC ([3]; amoxicillin alone, Klebsiella pneumoniae H1893): 0.8 ± 0.12 µg/mL
- IC50 ([3]; amoxicillin alone, Klebsiella pneumoniae H1893, read-out: 50% PIC): 1.7 ± 0.09 µg/mL
- MIC ([4]; Klebsiella pneumoniae, K. pneumoniae 111878, read-out: 100% MIC Alone (amoxicillin, first figure of the cell)): 50 µg/mL
- 25% PIC ([4]; amoxicillin alone, Klebsiella pneumoniae H1878): 0.9 ± 0.09 µg/mL
- IC50 ([4]; amoxicillin alone, Klebsiella pneumoniae H1878, read-out: 50% PIC): 1.6 ± 0.17 µg/mL
- MIC ([5]; Escherichia coli, E. coli P7847, read-out: 100% MIC Alone (amoxicillin, first figure of the cell)): 50 µg/mL
- 25% PIC ([5]; amoxicillin alone, Escherichia coli P7847): 0.8 ± 0.17 µg/mL
- IC50 ([5]; amoxicillin alone, Escherichia coli P7847, read-out: 50% PIC): 1.5 ± 0.13 µg/mL
- MIC ([6]; Escherichia coli, E. coli P956, read-out: 100% MIC Alone (amoxicillin, first figure of the cell)): 50 µg/mL
- 25% PIC ([6]; amoxicillin alone, Escherichia coli P956): 0.7 ± 0.14 µg/mL
- IC50 ([6]; amoxicillin alone, Escherichia coli P956, read-out: 50% PIC): 1.1 ± 0.25 µg/mL
